Literature values, collected in patent US20110105443A1, “SALTS OF MEMANTINE AND COX-INHIBITORS AND THEIR CRYSTAL FORM IN THE TREATMENT OF PAIN” (LABORATORIES DEL DR. ESTEVE, S.A., priority 2008, published 2011).

Details: stated property of the free drug (base or acid), no method given

Structure (SMILES): CC(=O)Oc1cc(C(F)(F)F)ccc1C(=O)O [Triflusal, 2-acetoxy-4-trifluoromethyl-benzoic acid]
- pKa: 3.34
